The structures appear in SMILES notation.

The term MIC denotes the lowest concentration that inhibits growth of the organism. The low end stands for inhibition by little substance, the high end for a need for much substance. For orientation: IC50 means the concentration that inhibits the measured activity by half.

One assay has as its system C. albicans ATCC 90028. Kind of assay: MIC, twofold serial microdilution. The assay is classed as cell-based, Candida albicans. The settings on record: C. albicans ATCC 90028, 24 h, 35 °C. As to the method:
(§1) The antimicrobial activity of the compounds was tested on Gram-positive bacteria (Staphylococcus aureus NCTC 4163, Staphylococcus aureus ATCC 25923, Staphylococcus aureus ATCC 6538, Staphylococcus aureus ATCC 29213, Staphylococcus epidermidis ATCC 12228, Staphylococcus epidermidis ATCC 35984), Gram-negative rods (Escherichia coli ATCC 10538, Escherichia coli ATCC 25922, Pseudomonas aeruginosa ATCC 15442, Pseudomonas aeruginosa ATCC 27863) and yeasts (Candida albicans ATCC 10231, Candida albicans ATCC 90028, Candida parapsilosis ATCC 22019). Hospital methicillin-resistant strains of Staphylococcus aureus and Staphylococcus epidermidis were obtained from the collection of the Department of Pharmaceutical Microbiology, Medical University of Warsaw, Poland.
(§2) Antifungal activities were assessed using Mueller–Hinton agar + 2% glucose and 0.5 µg/mL methylene blue dye medium. Sterile filter paper discs (9 mm diameter, Whatman Number 3 chromatography paper) were dripped with tested compound solutions (in dimethylsulfoxide, DMSO) to load 400 μg of a given compound per disc. Dry discs were placed on the surface of appropriate agar medium. The results (diameter of the growth inhibition zone) were read after 18 h of incubation at 35 °C. Minimal inhibitory concentration (MIC) was tested by the twofold serial microdilution method (in 96-well microtiter plates) using Mueller–Hinton broth medium (Beckton Dickinson) for bacteria or RPMI-1640 medium for Candida species, according to CLSI guidelines. The stock solution of tested agent was prepared in DMSO and diluted in sterile water. […] The final inoculum of all studied microorganisms was 10^5 CFU/ mL^−1 (colony forming units per ml). Minimal inhibitory concentrations (the lowest concentration of a tested agent that prevents visible growth of a microorganism) were read after 18 h (bacteria) or 24 h (yeasts) of incubation at 35 °C.

The subject of the next assay is C. albicans ATCC 10231. Kind of assay: MIC, twofold serial microdilution. The class given is cell-based, Candida albicans. The settings on record: C. albicans ATCC 10231, 24 h, 35 °C. As for the experimental part: as §1, §2
(Broth dilution looks for growth in wells or tubes with falling amounts of substance.)

For a further assay, the system named is E. coli NCTC 10538. Kind of assay: MIC, twofold serial microdilution. The assay is classed as cell-based, Escherichia coli. The settings on record: E. coli NCTC 10538, 18 h, 35 °C. As for the experimental part:
as §1, §2

Another assay has as its system E. coli ATCC 25922. In words: MIC, twofold serial microdilution. The settings on record: E. coli ATCC 25922, 18 h, 35 °C. The class given is cell-based, Escherichia coli. As to the method:
as §1, §2

For assay [1], the system named is hospital S. epidermidis (MRSE). In words: MIC, hospital S. epidermidis. The settings on record: for times more effective than the reference chemotherapeutic (ciprofloxacin): S. epidermidis 424, 471, 511, 515 and 431–433 isolates. The assay is classed as cell-based, Staphylococcus epidermidis. As for the experimental part:
as §1, §2

The test system of assay [2] is PC3 (human metastatic prostate cancer). In words: MTT cytotoxicity assay, PC3. The class given is cell-based. The settings on record: for IC50: PC3, 72 h, MTT; for fold more active than cisplatin: PC3 cell lines. As for the experimental part: (§3) The human primary (SW480), metastatic (SW620) colon cancer, metastatic prostate cancer (PC3) and human immortal keratinocyte (HaCaT) cell lines were purchased from the American Type Culture Collection (ATCC, Rockville, USA). The cells were cultured in medium according to protocols (MEM for SW480 and SW620, RPMI 1640 for PC3 and DMEM for HaCaT cells) supplemented with 10% fetal bovine serum (FBS), penicillin (100 U/mL) and streptomycin (100 μg/mL) and cultured in 37 °C/ 5% CO2 humidified incubator. The cells were cultured until appropriate confluence was achieved (80–90%). Next, they were harvested by treatment with 0.25% trypsin (Gibco Life Technologies, USA) and used for studies.
(§4) Cells without studied compounds in medium were used as a control.
The cell viability was assessed by determination of MTT salt (3-(4,5-dimethylthiazol-2-yl)-2,5-diphenyltetrazolium bromide) conversion by mitochondrial dehydrogenase. MTT assay was performed as previously described. Experiments were repeated three times. Cell viability was presented as a percentage of MTT reduction in the treated cells versus the control cells. Number of viable cells cultured without studied compounds was assumed to be 100%. Decreased relative MTT level means decreased cell viability. Thiourea complexes with the highest cytotoxic potential assessed by MTT determination (with the lowest IC50) were chosen for subsequent assessments of cytotoxicity mechanisms.

For the next assay, the system named is S. epidermidis 513. Kind of assay: MIC, hospital MRSE strain. The assay is classed as cell-based, Staphylococcus epidermidis. The settings on record: hospital MRSE S. epidermidis 513. As for the experimental part:
as §1, §2

For the next assay, the system named is S. epidermidis 469. In words: MIC, hospital MRSE strain. The assay is classed as cell-based, Staphylococcus epidermidis. The settings on record: hospital MRSE S. epidermidis 469. As to the method:
as §1, §2

Another assay deals with S. epidermidis 438. Kind of assay: MIC, hospital MRSE strain. The assay is classed as cell-based, Staphylococcus epidermidis. The settings on record: hospital MRSE S. epidermidis 438. As to the method: as §1, §2
A further assay deals with S. epidermidis 424. In words: MIC, hospital MRSE strain. The class given is cell-based, Staphylococcus epidermidis. The settings on record: hospital MRSE S. epidermidis 424. As for the experimental part:
as §1, §2

The next assay concerns S. epidermidis 437. In words: MIC, hospital MRSE strain. The assay is classed as cell-based, Staphylococcus epidermidis. The settings on record: hospital MRSE S. epidermidis 437. As to the method:
as §1, §2

The next assay concerns S. epidermidis 431. Kind of assay: MIC, hospital MRSE strain. The assay is classed as cell-based, Staphylococcus epidermidis. The settings on record: hospital MRSE S. epidermidis 431. As to the method:
as §1, §2

In the next assay the test system is S. epidermidis 515. Kind of assay: MIC, hospital MRSE strain. The assay is classed as cell-based, Staphylococcus epidermidis. The settings on record: hospital MRSE S. epidermidis 515. As to the method: as §1, §2
Another assay concerns S. epidermidis 471. Kind of assay: MIC, hospital MRSE strain. The class given is cell-based, Staphylococcus epidermidis. The settings on record: hospital MRSE S. epidermidis 471. As for the experimental part:
as §1, §2

The next assay concerns S. epidermidis 423. Kind of assay: MIC, hospital MRSE strain. The assay is classed as cell-based, Staphylococcus epidermidis. The settings on record: hospital MRSE S. epidermidis 423. As to the method: as §1, §2
Another assay relates to S. epidermidis 435. Kind of assay: MIC, hospital MRSE strain. The class given is cell-based, Staphylococcus epidermidis. The settings on record: hospital MRSE S. epidermidis 435. As for the experimental part: as §1, §2
The subject of the next assay is S. epidermidis 511. In words: MIC, hospital MRSE strain. The assay is classed as cell-based, Staphylococcus epidermidis. The settings on record: hospital MRSE S. epidermidis 511. As to the method: as §1, §2
The test system of a further assay is S. epidermidis 436. Kind of assay: MIC, hospital MRSE strain. The settings on record: hospital MRSE S. epidermidis 436. The assay is classed as cell-based, Staphylococcus epidermidis. As for the experimental part: as §1, §2
Assay [3] has as its system SW620 (human metastatic colon cancer). In words: MTT cytotoxicity assay, SW620. The assay is classed as cell-based. The settings on record: SW620, 72 h. As to the method: as §3, §4
The cell viability was assessed by determination of MTT salt (3-(4,5-dimethylthiazol-2-yl)-2,5-diphenyltetrazolium bromide) conversion by mitochondrial dehydrogenase. MTT assay was performed as previously described. Experiments were repeated three times. Cell viability was presented as a percentage of MTT reduction in the treated cells versus the control cells. Number of viable cells cultured without studied compounds was assumed to be 100%. Decreased relative MTT level means decreased cell viability.

The test system of assay [4] is C. parapsilosis ATCC 22019. In words: MIC, twofold serial microdilution. The assay is classed as cell-based, Candida parapsilosis. The settings on record: C. parapsilosis ATCC 22019, 24 h, 35 °C. As to the method: as §1, §2

For the compound `O=[N+]([O-])c1cc([N+]2=C(Nc3ccc(Br)cc3)[S][Cu-2]23[S]C(Nc2ccc(Br)cc2)=[N+]3c2ccc(Cl)c([N+](=O)[O-])c2)ccc1Cl` [Compound 3, Copper (II) complex with 1-(4-bromophenyl)-3-(4-chloro-3-nitrophenyl)thiourea], the MIC against C. albicans ATCC 90028 was 64 µg/mL; against C. albicans ATCC 10231, 64 µg/mL; against E. coli NCTC 10538, 128 µg/mL; with E. coli ATCC 25922, greater than 256 µg/mL; in assay [1] (most of hospital S. epidermidis species), 4 to 8 µg/mL; against S. epidermidis 513, 4 µg/mL. The MIC with S. epidermidis 469 is recorded as 4 µg/mL; against S. epidermidis 438, 4 µg/mL; against S. epidermidis 424, 4 µg/mL; against S. epidermidis 437 it was 8 µg/mL; against S. epidermidis 431, 4 µg/mL; with S. epidermidis 515, 8 µg/mL. The minimum inhibitory concentration (MIC) in the assay with S. epidermidis 471 amounted to 8 µg/mL; against S. epidermidis 423, 4 µg/mL; against S. epidermidis 435 it was 4 µg/mL; against S. epidermidis 511, 4 µg/mL; with S. epidermidis 436, 4 µg/mL; in assay [4], 64 µg/mL. The IC50 amounted to 8.8 ± 0.8 µM in assay [2] and 19.2 ± 2.3 µM in assay [3]. For the same compound, the “fold more active than cisplatin” value in assay [2] is on record as 1.2–3.1 fold.

In the case of `O=[N+]([O-])c1cc([N+]2=C(Nc3ccc(F)c(Cl)c3)[S][Cu-2]23[S]C(Nc2ccc(F)c(Cl)c2)=[N+]3c2ccc(Cl)c([N+](=O)[O-])c2)ccc1Cl` [Compound 4, Copper (II) complex with 1-(3-chloro-4-fluorophenyl)-3-(4-chloro-3-nitrophenyl)thiourea], the MIC against C. albicans ATCC 90028 amounted to 128 µg/mL; against C. albicans ATCC 10231, 128 µg/mL; in the assay with E. coli NCTC 10538, 128 µg/mL; against E. coli ATCC 25922, 128 µg/mL; in the assay on S. epidermidis 513 it was 8 µg/mL; against S. epidermidis 469 it was 4 µg/mL. Besides, the MIC was determined as 8 µg/mL in the assay on S. epidermidis 438; 8 µg/mL against S. epidermidis 424; 8 µg/mL against S. epidermidis 437; 8 µg/mL in the assay on S. epidermidis 431; 4 µg/mL in the assay on S. epidermidis 515; 8 µg/mL against S. epidermidis 471. Besides, the MIC was found to be 4 µg/mL in the assay with S. epidermidis 423; 8 µg/mL against S. epidermidis 435; 4 µg/mL in the assay on S. epidermidis 511; 8 µg/mL against S. epidermidis 436; 64 µg/mL in assay [4]. Besides, the “times more effective than the reference chemotherapeutic (ciprofloxacin)” value in assay [1] is listed as 2–16 times. Moreover, the values for the IC50 in assay [2] and in assay [3] were 23.2 ± 1.6 µM and 21.6 ± 2.9 µM, respectively.

As to `O=[N+]([O-])c1cc([N+]2=C(Nc3ccccc3F)[S][Cu-2]23[S]C(Nc2ccccc2F)=[N+]3c2ccc(Cl)c([N+](=O)[O-])c2)ccc1Cl` [Compound 7, Copper (II) complex with 1-(2-fluorophenyl)-3-(4-chloro-3-nitrophenyl)thiourea], the MIC against C. albicans ATCC 90028 worked out at 128 µg/mL; in the assay on C. albicans ATCC 10231, 128 µg/mL; against E. coli NCTC 10538 it was 128 µg/mL; with E. coli ATCC 25922 it was 256 µg/mL; against S. epidermidis 513, 8 µg/mL; in the assay on S. epidermidis 469, 8 µg/mL. The MIC in the assay on S. epidermidis 438, against S. epidermidis 424, with S. epidermidis 437, in the assay with S. epidermidis 431, against S. epidermidis 515 and with S. epidermidis 471 was 8 µg/mL each time. In addition, the MIC with S. epidermidis 423 was found to be 8 µg/mL; against S. epidermidis 435, 8 µg/mL; in the assay with S. epidermidis 511, 8 µg/mL; against S. epidermidis 436, 8 µg/mL; in assay [4], 128 µg/mL. In addition, in assay [1], the “times more effective than the reference chemotherapeutic (ciprofloxacin)” value was 2–16 times. In addition, the IC50 stood at 10.8 ± 1.3 µM in assay [2] and 9.1 ± 0.8 µM in assay [3]. Moreover, the “fold more active than cisplatin” value in assay [2] is 1.2–3.1 fold.

`O=[N+]([O-])c1cc([N+]2=C(Nc3ccc(I)cc3)[S][Cu-2]23[S]C(Nc2ccc(I)cc2)=[N+]3c2ccc(Cl)c([N+](=O)[O-])c2)ccc1Cl` [Compound 8, Copper (II) complex with 1-(4-iodophenyl)-3-(4-chloro-3-nitrophenyl)thiourea]: the minimal inhibitory concentration (MIC) against C. albicans ATCC 90028 is 128 µg/mL; in the assay with C. albicans ATCC 10231, 64 µg/mL; in the assay on E. coli NCTC 10538, 128 µg/mL; in the assay with E. coli ATCC 25922, 128 µg/mL; against S. epidermidis 513, 8 µg/mL; in the assay on S. epidermidis 469, 8 µg/mL. Also, the MIC against S. epidermidis 438, in the assay on S. epidermidis 424, against S. epidermidis 437, with S. epidermidis 431, against S. epidermidis 515 and against S. epidermidis 471 was 8 µg/mL throughout. The MIC against S. epidermidis 423 is 8 µg/mL; in the assay on S. epidermidis 435, 8 µg/mL; in the assay on S. epidermidis 511 it was 8 µg/mL; with S. epidermidis 436 it was 8 µg/mL; in assay [4] it was 64 µg/mL. For the same compound, the “times more effective than the reference chemotherapeutic (ciprofloxacin)” value in assay [1] is 2–16 times. Besides, the IC50 in assay [2] is 4.3 ± 0.5 µM; in assay [3], 17.8 ± 1.3 µM. Moreover, the “fold more active than cisplatin” value in assay [2] was 1.2–3.1 fold.

Source of the values: article PMC8584173, “The Cytotoxic Effect of Copper (II) Complexes with Halogenated 1,3-Disubstituted Arylthioureas on Cancer and Bacterial Cells” (International Journal of Molecular Sciences, 2021).
